# According to PMC8589851 (Scientific Reports, 2021):
# Values joined by “and” are separate entries in the source; they are usually repeats but may differ in a detail not shown here. Identical values can stand only once. Like-named read-outs stand apart in the source and are kept apart here.
# What was measured:
# [1] = test system: SARS-CoV-2 Spike pseudotyped VSV(S); test: microbe, parasite or virus in culture; format: cell-based; conditions: Severe acute respiratory syndrome coronavirus 2, A549, read-out: Hill plot-based EC-50, inhibition of virus penetration
# [2] = 0.50–0.60 mg injected, 12 normal subjects; cited from earlier work
# [3] = cited from earlier work
# native SARS-CoV-2 = conditions: Vero cells; cited from earlier work
# [4] = test system: SARS-CoV-2 NanoLuc reporter virus; test: microbe, parasite or virus in culture; format: cell-based
# [5] = CF patients, cited from earlier work
# [6] = 0.25 mg daily for one week, cystic fibrosis patients; cited from earlier work
# [7] = 0.25 mg ouabain daily for 9 days
# [8] = 0.25 mg ouabain, normal human volunteers
structure (smiles),measurement,setting,value
"C[C@@H]1O[C@@H](O[C@H]2C[C@@H](O)[C@]3(CO)[C@H]4[C@H](O)C[C@]5(C)[C@@H](C6=CC(=O)OC6)CC[C@]5(O)[C@@H]4CC[C@]3(O)C2)[C@H](O)[C@H](O)[C@H]1O [Ouabain, ouabain]",EC50,[1],16 ± 1 nM
same,adverse effects,[2],No adverse effects were reported
same,adverse events,[3]; [7],No adverse events were reported
same,time to plateau,[3]; [7],4 to 5 days
same,half-life,[3]; [8],19 to 24 h
same,peak plasma concentration,[3]; [8],12 ng/ml and 20 nM
same,EC50,native SARS-CoV-2,24 nM
same,inhibition of infectivity,[4],100%
same,EC50,"[4]; Severe acute respiratory syndrome coronavirus 2, read-out: EC50, inhibition of infectivity",36 nM
"C[C@H]1O[C@@H](O[C@H]2[C@@H](O)C[C@H](O[C@H]3[C@@H](O)C[C@H](O[C@H]4CC[C@@]5(C)[C@H](CC[C@@H]6[C@@H]5CC[C@]5(C)[C@@H](C7=CC(=O)OC7)CC[C@]65O)C4)O[C@@H]3C)O[C@@H]2C)C[C@H](O)[C@@H]1O [Digitoxin, digitoxin]",inhibition of infectivity,[4],100%
same,peak serum concentration,"[5]; 0.1 mg/day by mouth, by day 28",10 ng/ml and 13 nM
same,adverse events,[5]; 0.05 or 0.1 mg/day for 28 days,no adverse events were associated with the study drug
"C[C@]12CC[C@H](O)C[C@H]1CC[C@@H]1[C@@H]2C[C@@H](O)[C@]2(C)[C@@H](C3=CC(=O)OC3)CC[C@]12O [Digoxigenin, digoxigenin]",inhibition of infectivity,[4],100%
"C[C@]12CC[C@H](O)C[C@H]1CC[C@@H]1[C@@H]2CC[C@]2(C)[C@@H](C3=CC(=O)OC3)CC[C@]12O [Digitoxigenin, digitoxigenin]",inhibition of infectivity,[4],100%
"C[C@H]1O[C@@H](O[C@H]2[C@@H](O)C[C@H](O[C@H]3[C@@H](O)C[C@H](O[C@H]4CC[C@@]5(C)[C@H](CC[C@@H]6[C@@H]5C[C@@H](O)[C@]5(C)[C@@H](C7=CC(=O)OC7)CC[C@]65O)C4)O[C@@H]3C)O[C@@H]2C)C[C@H](O)[C@@H]1O [Digoxin, digoxin]",adverse events,[6],no adverse events associated with the study drug
same,EC50,native SARS-CoV-2,43 nM
same,inhibition of infectivity,[4],100%
